From patent publication US20250122183A1 (Pfizer Inc., priority 2023, published 2025) come the findings set out here.

Like-named read-outs stand apart in the source and are kept apart here.

A word on the Ki: it is a measure of affinity in units of concentration, obtained from inhibition or displacement.

Holding throughout (assay type): biochemical
Common to all, as to settings: replicate number in parentheses

In assay [1] the target is KAT7+BRPF2+EAF6+ING5 4 protein complex (Homo sapiens (Human), UniProt O95251). The experiment in a line: KAT7 BRPF2 assay (SAMDI-MS acetylation of H3 1-21 peptide).
The target of the next assay is KAT5 Full length enzyme (Homo sapiens (Human), UniProt Q92993). Description: KAT5 assay (SAMDI-MS acetylation of H4 1-21 peptide).
The target in the next assay is KAT6A Full length enzyme (Homo sapiens (Human), UniProt Q92794). The experiment in a line: KAT6A assay (SAMDI-MS acetylation of H3 1-21 peptide).
Another assay deals with KAT8 Full length enzyme (Homo sapiens (Human), UniProt Q9H7Z6). Description: KAT8 assay (SAMDI-MS acetylation of H3 1-21 peptide).
Assay [2] deals with KAT7+JADE1+EAF6+ING5 4 protein complex (Homo sapiens (Human), UniProt O95251). Description: KAT7 JADE1 assay (SAMDI-MS acetylation of H3 1-21 peptide).
Where [3] appears, read: Morrison equation fit, read-out: KAT7 BRPF2 Ki (nM) (replicate number).
Where [4] appears, read: Morrison equation fit, read-out: KAT5 Ki (nM) (replicate number).
The mark [5] stands for this setting: Morrison equation fit, read-out: KAT6A Ki (nM) (replicate number).
Setting [6] is: Morrison equation fit, read-out: KAT8 Ki (nM) (replicate number).
The mark [7] stands for this setting: Morrison equation fit, read-out: KAT7 JADE1 Ki (nM) (replicate number).
Setting [8] is: read-out: KAT7 BRPF2 Ki (nM) (replicate).
Where [9] appears, read: read-out: KAT6A Ki (nM) (replicate).
The mark [10] stands for this setting: read-out: KAT7 JADE1 Ki (nM) (replicate).

Sequence of KAT5 Full length enzyme (Q92993 whole entry): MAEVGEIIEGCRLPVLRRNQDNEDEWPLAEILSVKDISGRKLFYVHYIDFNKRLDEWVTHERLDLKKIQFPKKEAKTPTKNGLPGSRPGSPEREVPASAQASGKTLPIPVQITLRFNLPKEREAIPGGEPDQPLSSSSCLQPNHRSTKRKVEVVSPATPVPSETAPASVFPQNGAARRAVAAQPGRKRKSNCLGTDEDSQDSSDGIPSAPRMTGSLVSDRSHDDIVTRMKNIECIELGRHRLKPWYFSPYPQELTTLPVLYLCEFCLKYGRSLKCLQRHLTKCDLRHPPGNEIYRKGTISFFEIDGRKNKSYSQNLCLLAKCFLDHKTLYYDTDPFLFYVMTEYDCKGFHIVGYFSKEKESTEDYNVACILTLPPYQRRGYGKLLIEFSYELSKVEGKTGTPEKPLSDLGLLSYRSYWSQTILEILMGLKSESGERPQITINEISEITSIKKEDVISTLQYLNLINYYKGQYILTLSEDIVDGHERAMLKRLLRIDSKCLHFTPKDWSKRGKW
Sequence of KAT6A Full length enzyme (Q92794 other isoform, or with tags, fused parts or gaps): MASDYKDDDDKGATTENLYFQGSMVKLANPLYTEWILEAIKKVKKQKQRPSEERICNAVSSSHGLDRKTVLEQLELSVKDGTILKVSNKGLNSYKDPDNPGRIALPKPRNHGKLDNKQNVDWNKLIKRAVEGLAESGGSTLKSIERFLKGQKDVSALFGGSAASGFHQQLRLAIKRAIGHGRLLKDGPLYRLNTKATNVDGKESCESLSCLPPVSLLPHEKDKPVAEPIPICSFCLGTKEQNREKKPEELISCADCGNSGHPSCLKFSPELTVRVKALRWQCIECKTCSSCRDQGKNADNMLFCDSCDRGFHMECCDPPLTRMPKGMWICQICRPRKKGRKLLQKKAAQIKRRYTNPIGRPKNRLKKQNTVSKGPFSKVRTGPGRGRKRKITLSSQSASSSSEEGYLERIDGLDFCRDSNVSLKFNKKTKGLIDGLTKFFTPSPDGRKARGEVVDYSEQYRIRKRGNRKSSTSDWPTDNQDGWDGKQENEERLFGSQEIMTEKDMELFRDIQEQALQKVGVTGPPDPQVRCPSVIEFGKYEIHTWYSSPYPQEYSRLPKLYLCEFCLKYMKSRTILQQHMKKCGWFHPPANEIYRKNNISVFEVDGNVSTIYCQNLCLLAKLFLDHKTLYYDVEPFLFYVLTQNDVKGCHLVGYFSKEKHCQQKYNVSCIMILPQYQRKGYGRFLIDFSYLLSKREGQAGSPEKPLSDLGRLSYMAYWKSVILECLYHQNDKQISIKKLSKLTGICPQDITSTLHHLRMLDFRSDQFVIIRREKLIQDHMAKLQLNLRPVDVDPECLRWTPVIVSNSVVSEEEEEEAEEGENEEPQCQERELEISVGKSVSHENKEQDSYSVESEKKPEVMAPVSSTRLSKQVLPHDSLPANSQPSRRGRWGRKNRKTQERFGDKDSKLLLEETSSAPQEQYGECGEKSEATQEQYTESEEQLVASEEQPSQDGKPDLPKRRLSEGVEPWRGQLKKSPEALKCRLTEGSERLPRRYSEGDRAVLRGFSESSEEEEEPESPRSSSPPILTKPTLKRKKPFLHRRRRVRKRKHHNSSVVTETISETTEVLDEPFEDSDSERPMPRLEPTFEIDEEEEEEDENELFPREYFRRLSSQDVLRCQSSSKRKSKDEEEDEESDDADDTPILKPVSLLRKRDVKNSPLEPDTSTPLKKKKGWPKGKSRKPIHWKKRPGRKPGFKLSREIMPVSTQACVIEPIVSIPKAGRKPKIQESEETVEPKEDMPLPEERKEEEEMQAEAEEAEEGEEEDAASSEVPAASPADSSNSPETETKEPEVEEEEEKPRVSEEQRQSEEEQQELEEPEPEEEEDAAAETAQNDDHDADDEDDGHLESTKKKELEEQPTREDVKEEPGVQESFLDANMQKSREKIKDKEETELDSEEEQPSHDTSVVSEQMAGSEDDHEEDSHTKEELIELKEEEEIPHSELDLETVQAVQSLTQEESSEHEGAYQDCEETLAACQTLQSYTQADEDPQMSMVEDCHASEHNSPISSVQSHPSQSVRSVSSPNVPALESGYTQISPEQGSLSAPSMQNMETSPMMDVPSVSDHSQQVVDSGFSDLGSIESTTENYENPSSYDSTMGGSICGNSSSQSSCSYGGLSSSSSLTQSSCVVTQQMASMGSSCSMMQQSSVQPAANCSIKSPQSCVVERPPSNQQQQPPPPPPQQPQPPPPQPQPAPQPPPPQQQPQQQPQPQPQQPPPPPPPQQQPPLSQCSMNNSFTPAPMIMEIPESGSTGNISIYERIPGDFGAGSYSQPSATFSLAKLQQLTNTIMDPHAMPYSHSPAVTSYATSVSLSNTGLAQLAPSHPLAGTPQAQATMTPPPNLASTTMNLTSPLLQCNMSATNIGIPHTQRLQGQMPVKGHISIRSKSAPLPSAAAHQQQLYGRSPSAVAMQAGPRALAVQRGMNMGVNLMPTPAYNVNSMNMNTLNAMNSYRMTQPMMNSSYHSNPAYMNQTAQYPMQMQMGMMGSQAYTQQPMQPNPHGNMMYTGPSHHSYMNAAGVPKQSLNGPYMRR
Sequence of KAT8 Full length enzyme (Q9H7Z6 whole entry): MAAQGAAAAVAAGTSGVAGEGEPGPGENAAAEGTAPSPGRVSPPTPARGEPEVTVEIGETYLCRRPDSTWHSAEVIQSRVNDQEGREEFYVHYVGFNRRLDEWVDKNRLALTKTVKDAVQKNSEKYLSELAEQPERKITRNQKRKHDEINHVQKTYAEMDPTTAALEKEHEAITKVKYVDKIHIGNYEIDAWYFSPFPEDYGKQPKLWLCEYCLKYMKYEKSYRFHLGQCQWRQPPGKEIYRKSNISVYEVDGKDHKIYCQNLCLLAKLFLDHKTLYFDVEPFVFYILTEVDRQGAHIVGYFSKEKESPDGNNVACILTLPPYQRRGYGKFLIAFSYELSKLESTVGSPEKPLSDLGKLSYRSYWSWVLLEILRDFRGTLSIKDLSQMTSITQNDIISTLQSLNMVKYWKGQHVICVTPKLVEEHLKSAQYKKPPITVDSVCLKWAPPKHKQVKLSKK

With `CCOc1cccc(OC)c1S(=O)(=O)Nc1noc2cc(Nc3cc(C)[nH]n3)c(OC)cc12` [Example 99, 2-ethoxy-6-methoxy-N-{5-methoxy-6-[(5-methyl-1H-pyrazol-3-yl)amino]-1,2-benzoxazol-3-yl}benzene-1-sulfonamide], the Ki in assay [1] (setting [3]) is 5.5 nM; on KAT5 Full length enzyme (setting [4]), 388 nM; on KAT6A Full length enzyme (setting [5]), 0.5 nM; at KAT8 Full length enzyme (setting [6]), 4840 nM; in assay [2] (setting [7]) it was 82.6 nM.

Regarding `COc1cc2c(NS(=O)(=O)c3c(OC)cc(N(C)C4CCOC4)cc3OC)noc2cc1Nc1cc(C2CC2)[nH]n1` (centres unmarked) [Example 247, N-{6-[(3-cyclopropyl-1H-pyrazol-5-yl)amino]-5-methoxy-1,2-benzoxazol-3-yl}-2,6-dimethoxy-4-[methyl(oxolan-3-yl)amino]benzene-1-sulfonamide], the Ki came out at 1.7 nM in assay [1] (setting [8]), 0.5 nM on KAT6A Full length enzyme (setting [9]) and 2.7 nM in assay [2] (setting [10]).

On to `COc1cc2c(NS(=O)(=O)c3c(OC)cc(C(C)N4CCOCC4)cc3OC)noc2cc1Nc1cc(C2CC2)n[nH]1` (single isomer, unassigned) [Example 207, N-{6-[(3-cyclopropyl-1 H-pyrazol-5-yl)amino]-5-methoxy-1,2-benzoxazol-3-yl}-2,6-dimethoxy-4-[1-(morpholin-4-yl)ethyl]benzene-1-sulfonamide], for which the Ki in assay [1] (setting [3]) is 4 nM; on KAT6A Full length enzyme (setting [5]), 2.3 nM; in assay [2] (setting [7]) it was 11.5 nM.

`COc1cc2c(NS(=O)(=O)c3c(OC)cc(N4CC[C@@H](OC)C4)cc3OC)noc2cc1Nc1cc(C2CC2)n[nH]1` [Example 250, N-{6-[(3-cyclopropyl-1H-pyrazol-5-yl)amino]-5-methoxy-1,2-benzoxazol-3-yl}-2,6-dimethoxy-4-[(3R)-3-methoxypyrrolidin-1-yl]benzene-1-sulfonamide]: the Ki in assay [1] (setting [8]) came to 0.9 nM; on KAT6A Full length enzyme (setting [9]), 0.2 nM; in assay [2] (setting [10]), 1.3 nM.

As to `COc1cc2c(NS(=O)(=O)c3c(OC)cc(N(C)C4COC4)cc3OC)noc2cc1Nc1cc(C2CC2)n[nH]1` [Example 248, N-{6-[(3-cyclopropyl-1H-pyrazol-5-yl)amino]-5-methoxy-1,2-benzoxazol-3-yl}-2,6-dimethoxy-4-[methyl(oxetan-3-yl)amino]benzene-1-sulfonamide], the figures for the Ki (in assay [1] (setting [8]); on KAT6A Full length enzyme (setting [9]); in assay [2] (setting [10])) were 2.6 nM, 1.2 nM and 5.8 nM, respectively.

Regarding `COc1cc2c(NS(=O)(=O)c3c(OC)cc(N4C(=O)CCC4(C)C)cc3OC)noc2cc1Nc1cc(C2CC2)n[nH]1` [Example 256, N-{6-[(3-cyclopropyl-1H-pyrazol-5-yl)amino]-5-methoxy-1,2-benzoxazol-3-yl}-4-(2,2-dimethyl-5-oxopyrrolidin-1-yl)-2,6-dimethoxybenzene-1-sulfonamide], the values for the Ki (in assay [1] (setting [8]); at KAT6A Full length enzyme (setting [9]); in assay [2] (setting [10])) were 0.8 nM, 1.1 nM and 4.7 nM, respectively.

Turning to `COc1cc2c(NS(=O)(=O)c3c(OC)cc(C4COCC(C)(C)O4)cc3OC)noc2cc1Nc1cc(C2CC2)n[nH]1` (single isomer, unassigned) [Example 183, N-{6-[(3-cyclopropyl-1 H-pyrazol-5-yl)amino]-5-methoxy-1,2-benzoxazol-3-yl}-4-(6,6-dimethyl-1,4-dioxan-2-yl)-2,6-dimethoxybenzene-1-sulfonamide], the Ki in assay [1] (setting [3]) was 2.1 nM; at KAT6A Full length enzyme (setting [5]), 2.1 nM; in assay [2] (setting [7]) it was 5.7 nM.

As to `CCc1cc(Nc2cc3onc(NS(=O)(=O)c4ccc(-c5ccccc5)cc4)c3cc2OC)n[nH]1` [Example 130, N-{6-[(5-ethyl-1 H-pyrazol-3-yl)amino]-5-methoxy-1,2-benzoxazol-3-yl}[1,1′-biphenyl]-4-sulfonamide], the Ki came to 2010 nM at KAT5 Full length enzyme (setting [4]), 13 nM at KAT6A Full length enzyme (setting [5]), 7520 nM at KAT8 Full length enzyme (setting [6]) and 85.2 nM in assay [2] (setting [7]).

Take `COc1cc2c(NS(=O)(=O)c3c(OC)cccc3OC)noc2cc1Nc1cc([C@@H]2CC2(F)F)[nH]n1` (single isomer, unassigned) [Example 69, N-(6-{[5-(2,2-difluorocyclopropyl)-1H-pyrazol-3-yl]amino}-5-methoxy-1,2-benzoxazol-3-yl)-2,6-dimethoxybenzene-1-sulfonamide]: the Ki was above 50000 nM at KAT5 Full length enzyme (setting [4]), above 3290 nM on KAT6A Full length enzyme (setting [5]), above 13000 nM at KAT8 Full length enzyme (setting [6]) and above 29000 nM in assay [2] (setting [7]).

As to `COc1cc2c(NS(=O)(=O)c3c(OC)cc(-c4cnn(C)n4)cc3OC)noc2cc1Nc1cc(C2CC2)n[nH]1` [Example 212, N-{6-[(3-cyclopropyl-1 H-pyrazol-5-yl)amino]-5-methoxy-1,2-benzoxazol-3-yl}-2,6-dimethoxy-4-(2-methyl-2H-1,2,3-triazol-4-yl)benzene-1-sulfonamide], the Ki was determined as 159 nM at KAT5 Full length enzyme (setting [4]), 0.7 nM at KAT6A Full length enzyme (setting [5]), 1410 nM at KAT8 Full length enzyme (setting [6]) and 11.1 nM in assay [2] (setting [7]).

`CCc1cc(Nc2cc3onc(NS(=O)(=O)c4cc(Cl)ccc4Cl)c3cc2OC)n[nH]1` [Example 134, 2,5-dichloro-N-{6-[(5-ethyl-1 H-pyrazol-3-yl)amino]-5-methoxy-1,2-benzoxazol-3-yl}benzene-1-sulfonamide]: the Ki turned out to be 4550 nM on KAT5 Full length enzyme (setting [4]), 34.3 nM at KAT6A Full length enzyme (setting [5]), 9800 nM at KAT8 Full length enzyme (setting [6]) and 185 nM in assay [2] (setting [7]).

With `COc1cc2c(NS(=O)(=O)c3c(OC)cc(C(=O)N4CC[C@H](F)C4)cc3OC)noc2cc1Nc1cc(C2CC2)n[nH]1` [Example 259, N-{6-[(3-cyclopropyl-1H-pyrazol-5-yl)amino]-5-methoxy-1,2-benzoxazol-3-yl}-4-[(3S)-3-fluoropyrrolidine-1-carbonyl]-2,6-dimethoxybenzene-1-sulfonamide], the Ki was 85.1 nM at KAT5 Full length enzyme (read-out: KAT5 Ki (nM) (replicate)), 1.2 nM at KAT6A Full length enzyme (setting [9]), 4990 nM on KAT8 Full length enzyme (read-out: KAT8 Ki (nM) (replicate)) and 6.7 nM in assay [2] (setting [10]).

As to `COc1cc2c(NS(=O)(=O)c3c(OC)cc(C4CCCCO4)cc3OC)noc2cc1Nc1cc(C2CC2)n[nH]1` (single isomer, unassigned) [Example 143, N-{6-[(3-cyclopropyl-1 H-pyrazol-5-yl)amino]-5-methoxy-1,2-benzoxazol-3-yl}-2,6-dimethoxy-4-(oxan-2-yl)benzene-1-sulfonamide], the Ki on KAT5 Full length enzyme (setting [4]) was 44.3 nM; at KAT6A Full length enzyme (setting [5]) it was 1.1 nM; at KAT8 Full length enzyme (setting [6]), 436 nM; in assay [2] (setting [7]), 9.6 nM.

Regarding `COc1cc2c(NS(=O)(=O)c3c(OC)cc(-c4ncco4)cc3OC)noc2cc1Nc1cc(C2CC2)n[nH]1` [Example 08, N-{6-[(3-cyclopropyl-1H-pyrazol-5-yl)amino]-5-methoxy-1,2-benzoxazol-3-yl}-2,6-dimethoxy-4-(1,3-oxazol-2-yl)benzene-1-sulfonamide], the Ki on KAT5 Full length enzyme (setting [4]) is 46.9 nM; at KAT6A Full length enzyme (setting [5]) it was 1.2 nM; on KAT8 Full length enzyme (setting [6]), 1620 nM; in assay [2] (setting [7]), 12.8 nM.

Regarding `COc1cc2c(NS(=O)(=O)c3c(OC)cccc3OC)noc2cc1Nc1cc(C(C)(F)F)n[nH]1` [Example 66, N-(6-{[3-(1,1-difluoroethyl)-1H-pyrazol-5-yl]amino}-5-methoxy-1,2-benzoxazol-3-yl)-2,6-dimethoxybenzene-1-sulfonamide], the Ki was 871 nM at KAT5 Full length enzyme (setting [4]), 10.7 nM on KAT6A Full length enzyme (setting [5]), above 13000 nM on KAT8 Full length enzyme (setting [6]) and 130 nM in assay [2] (setting [7]).

As to `COc1cc2c(NS(=O)(=O)c3c(OC)cc(-n4ncccc4=O)cc3OC)noc2cc1Nc1cc(C2CC2)n[nH]1` [Example 243, N-{6-[(3-cyclopropyl-1 H-pyrazol-5-yl)amino]-5-methoxy-1,2-benzoxazol-3-yl}-2,6-dimethoxy-4-(6-oxopyridazin-1(6H)-yl)benzene-1-sulfonamide], the Ki on KAT5 Full length enzyme (setting [4]) was determined as 168 nM; at KAT6A Full length enzyme (setting [5]), 1.5 nM; on KAT8 Full length enzyme (setting [6]) it was 872 nM; in assay [2] (setting [7]), 16.9 nM.

Turning to `COc1cc2c(NS(=O)(=O)c3c(OC)cc(CN4CC(F)C4)cc3OC)noc2cc1Nc1cc(C2CC2)n[nH]1` [Example 202, N-{6-[(3-cyclopropyl-1H-pyrazol-5-yl)amino]-5-methoxy-1,2-benzoxazol-3-yl}-4-[(3-fluoroazetidin-1-yl)methyl]-2,6-dimethoxybenzene-1-sulfonamide], the Ki at KAT5 Full length enzyme (setting [4]) came to 25.4 nM; at KAT6A Full length enzyme (setting [5]) it was 0.7 nM; on KAT8 Full length enzyme (setting [6]), 844 nM; in assay [2] (setting [7]), 5.2 nM.

With `CCn1cnc(Nc2cc3onc(NS(=O)(=O)c4c(OC)cccc4OC)c3cc2OC)c1` [Example 75, N-{6-[(1-ethyl-1H-imidazol-4-yl)amino]-5-methoxy-1,2-benzoxazol-3-yl}-2,6-dimethoxybenzene-1-sulfonamide], the Ki on KAT5 Full length enzyme (setting [4]) was 2210 nM; on KAT6A Full length enzyme (setting [5]), 22.3 nM; on KAT8 Full length enzyme (setting [6]), above 11200 nM; in assay [2] (setting [7]), 501 nM.

`COc1cc2c(NS(=O)(=O)c3c(OC)cccc3OC)noc2cc1Nc1cc(C2CC2)n(C)n1` [Example 103, N-{6-[(5-cyclopropyl-1-methyl-1H-pyrazol-3-yl)amino]-5-methoxy-1,2-benzoxazol-3-yl}-2,6-dimethoxybenzene-1-sulfonamide]: the Ki came to 254 nM at KAT5 Full length enzyme (setting [4]), 2.8 nM on KAT6A Full length enzyme (setting [5]), 6010 nM at KAT8 Full length enzyme (setting [6]) and 47.4 nM in assay [2] (setting [7]).
